Data reported in patent publication US6486160B1, “Pharmaceutical composition for modulating immunity” (Toray Industries, Inc., priority 2001, dated 2002).

Assays:
Format in all cases: in vivo, human
[1] = system: inflammation due to the malignant articular rheumatism; test: Inflammation due to malignant articular rheumatism in the patient; conditions: re-administration, 1.25 mg twice a day
Experimental: (§1) 2-(4-Methoxyphenyl)-5-(5-methyl-3-oxo-4,5-dihydro-2H-6-pyridazinyl)-benzimidazole (hereunder referred to as imobendan was orally administered to a patient who suffered from heart failure while malignant articular rheumatism set in as a complication and the CRP value thereof was determined with the elapse of time.
(§2) Thus, the administration of Pimobendan was discontinued. Thereafter, Pimobendan was again administered to the patient in a dose of 1.25 mg twice a day to confirm the effect of the drug to reduce the CRP value.

heart function = test: Echocardiography of the patient; conditions: patient with heart failure, 1.25 mg twice a day
CRP = CRP value by latex agglutination assay in a patient given Pimobendan orally
Experimental: as §1
The CRP value was determined by the latex agglutination assay disclosed in Senju Osamu, et al.: J. Clin. Lab. Immunol. 19:99-103(1986) according to a method identical to that disclosed in Claus David R. et al.: J. Lab. Clin. Med. 87:120-128(1976).
When Pimobendan was administered to the patient in a dose of 1.25 mg, the CRP value thereof was reduced and therefore, the compound was administered in a dose of 1.25 mg twice a day on and after the next day (this was defined to be the day at which the administration was initiated).
as §2

## COc1ccc(-c2nc3ccc(C4=NNC(=O)CC4C)cc3[nH]2)cc1 (centres unmarked) [Pimobendan, 2-(4-Methoxyphenyl)-5-(5-methyl-3-oxo-4,5-dihydro-2H-6-pyridazinyl)-benzimidazole]
[1]
  inflammation due to the malignant articular rheumatism: recovered
Heart function
  heart function: improved
CRP; after first dose of 1.25 mg, value prior to administration 4.7 mg/dl
  CRP value (change): reduced
CRP; day 89, in parentheses: day at which Pimobendan was not administered (discontinued)
  CRP Value: (5.0) mg/dl
CRP; day 90, in parentheses: day at which Pimobendan was not administered (discontinued)
  CRP Value: (2.7) mg/dl
CRP; day 97, in parentheses: day at which Pimobendan was not administered (discontinued)
  CRP Value: (2.4) mg/dl
CRP; day 105, in parentheses: day at which Pimobendan was not administered (discontinued)
  CRP Value: (3.6) mg/dl
CRP; day 113, in parentheses: day at which Pimobendan was not administered (discontinued)
  CRP Value: (3.2) mg/dl
CRP; day 119, in parentheses: day at which Pimobendan was not administered (discontinued)
  CRP Value: (2.9) mg/dl
CRP; patient, again 1.25 mg twice a day, day 126 after initiating the administration
  CRP Value: 3.0 mg/dL
CRP; patient, again 1.25 mg twice a day, day 127 after initiating the administration
  CRP Value: 4.3 mg/dL
CRP; patient, again 1.25 mg twice a day, day 130 after initiating the administration
  CRP Value: 3.8 mg/dL
CRP; patient, again 1.25 mg twice a day, day 132 after initiating the administration
  CRP Value: 2.1 mg/dL
CRP; patient, again 1.25 mg twice a day, day 137 after initiating the administration
  CRP Value: 1.3 mg/dL
CRP; patient, oral 1.25 mg twice a day, day 12 after initiating the administration
  CRP Value: 1.7 mg/dL
CRP; patient, oral 1.25 mg twice a day, day 28 after initiating the administration
  CRP Value: 6.1 mg/dL
CRP; patient, oral 1.25 mg twice a day, day 61 after initiating the administration
  CRP Value: 3.0 mg/dL
CRP; patient, oral 1.25 mg twice a day, day 71 after initiating the administration
  CRP Value: 3.3 mg/dL
CRP; re-administration, 1.25 mg twice a day after discontinuation
  CRP value (change): again reduced
CRP; whole test period
  CRP value (overall conclusion from Table 1): reduce the CRP value to a clinically satisfactory level
